{"source": "patent US20100204295A1", "about": "“TREATMENT OF ALLERGIC DISEASE WITH IMMUNOMODULATOR COMPOUNDS” (SCICLONE PHARMACEUTICALS, INC., priority 2007, published 2010)", "key": {"[1]": {"test_system": "thymocyte and lymphocyte proliferation", "conditions": "cited from earlier work"}, "[2]": {"test_system": "eosinophils and neutrophils in the lung tissue", "assay": "Lung tissue eosinophil peroxidase (EPO) and myeloperoxidase (MPO), guinea pig model", "assay_type": "in vivo, Dunkin-Hartley guinea pigs", "method": "Animals were sensitized on day 0 ip with 50 mg/kg OVA. On Days 17, 18, 19, and 20, animals received an ip injection between 8 and 10 am with PBS, SCV-07 at 1 ug/kg, or SCV-07 at 10 ug/kg (Peptide treatment). Between 8 and 10 a.m. on Day 21, animals were administered peptide 2 hours before OVA or saline (NSS) aerosol challenge. 30 min before OVA or NSS aerosol challenge each animal was injected ip with an antihistamine (6.1 mg/kg pyrilamine maleate) to prevent death due to the anaphylactic response that accompanies aerosol OVA challenge. Animals were exposed to aerosol in pairs with either 1% OVA solution or NSS for 5 min in a plexiglass chamber (22×22×29 cm) using a DeVilbiss Model 35B Ultrasonic Nebulizer. Animals were observed during the total 5 min aerosolization and comments recorded. Within 22-24 hours after challenge, animals were euthanized, bled by cardiac puncture, lavaged and lung lobes removed for measurement of cellular infiltration. At the time of OVA or NSS challenge and euthanasia, animal weights ranged from approximately 350-550 g, with the average weight approximately 420 g. This experimental protocol is similar to that used in previously published studies (Regal and Fraser, 1996; Regal et al., 2000). Animals were euthanized with pentobarbital (100-200 mg/kg), bled by cardiac puncture, and lavaged with room temperature PBS. For bronchoalveolar lavage (BAL), the trachea was cannulated and 4 volumes of PBS were introduced into the tracheal cannula and gently withdrawn. Total lavage volume was 60 ml/kg. The BAL was centrifuged to sediment the cells, and the BAL cell pellet re-suspended in 1.0 ml PBS for determination of the total number of white blood cells (WBC) recovered in the BAL of each animal. The BAL supernatant was frozen at −70 C for determination of total protein recovered in the BAL supernatant using the method of Lowry et al. (1951). Total white blood cells in BAL were counted by standard methods in a hemacytometer using Turk's solution. Differential counts were obtained from cytospin preparations of BAL cells (3×10^4 cells) stained with a modified Wrights' stain (Diff Quik, American Scientific Products, McGraw Park, Ill.). Four hundred cells were counted and identified as eosinophils, neutrophils, or mononuclear cells. […] EPO activity from the homogenized lung after lavage was expressed as total OD/min from the left caudal lobe. MPO activity from the homogenized lung after lavage was expressed as total units of enzyme activity from the right caudal lobe. […] OD412 of the BAL supernatant was also determined to estimate the number of RBCS that were lysed during the lavage procedure and prior to re-suspension of the cells for counting. […]"}, "[3]": {"test_system": "experimental allergic asthma (BAL cells)", "assay": "Cytological composition of bronchoalveolar lavage in allergic ovalbumin asthma model", "assay_type": "in vivo, mice of the Balb/C line", "conditions": "for Total cellularity of the BAL: animals 6-8 weeks, mean±SD; for Eosinophils, % of BAL cells / Lymphocytes, % of BAL cells / Monocytes/Macrophages, % of BAL cells / Neutrophils, % of BAL cells: animals 6 to 8 weeks; for Eosinophils in BAL, thousand / Lymphocytes in BAL, thousand / Monocytes/Macrophages in BAL, thousand / Neutrophils in BAL, thousand / Total number of cells in the lavages: animals 18 to 20 weeks", "excerpt": "Female, non-pathogenic mice of the Balb/C line (“Pushchtino” laboratory animal breeders) were kept under conditions of an SPF-vivarium at a constant temperature, 12-hour day/night cycle, and received sterile feed and water ad libitum. In two series of experiments, mice from 6-8 weeks and 18-20 weeks of age were used at the beginning of the experiment, respectively.\nThe animals were immunized twice at 5-day intervals with an ovalbumin solution (Sigma) in an adjuvant based on ammonium sulfate at a dosage of 8 μg per mouse. SCV-07 was administered intra-abdominally in a volume of 200 μL at a dosage of 0.1 or 1.0 μg/kg in PBS once a day from 6 through 11 days after the first immunization. The control group received physiological saline on the same days. Each group comprised 6 to 10 animals. On the 12th, 16th and 20th days after the first immunization, the animals were then placed in a hermetic box, in which an aerosol of 1% ovalbumin solution (OvA) in PBS was generated with an ultrasonic nebulizer LD-207U (Little Doctor) for 1 minute with continuous mixing of air. The duration of exposure of the animals to the aerosol was 15 minutes. Analysis of the severity of experimental allergic asthma was carried out 24 hours after the last aerosol exposure.\nThe mice were killed by intra-abdominal administration of a lethal dose of sodium barbital. Bronchoalveolar lavage (BAL) was obtained by washing the lungs through the trachea with 1 mL PBS solution. The BAL cells were precipitated by centrifuging, the precipitate was resuspended, the cell concentration was counted in a Goryaev chamber, and smears were prepared. The smears were dried, fixed and stained with Romanovskii dye. The cytological composition of the bronchoalveolar lavage was investigated under a light microscope with oil immersion (eyepiece×16, objective×100). The numbers of monocyte/macrophages, neutrophils, eosinophils and lymphocytes per 200 cells were counted, in which no less than 5 visual fields were viewed. The relative number of cells of each cell population was expressed as the percentage of the total number of cells.\nThe statistical processing of the results was carried out with the Microsoft Excel and SPSS programs for Windows v.13. The normality of the distribution was determined with the Kholmogorov-Smimov criterion. To evaluate the significance of the differences between groups for normally distributed values, we used the two-sided Student test with unequal deviations, for non-normally distributed differences—the Mann-Whitney test. The differences were considered significant at p<0.05. Unless otherwise stated, the data are presented in the form of means±standard deviation."}}, "data": [{"smiles": "N[C@H](CCC(=O)N[C@@H](Cc1c[nH]c2ccccc12)C(=O)O)C(=O)O", "note": "[SCV-07, γ-D-glutamyl-L-tryptophan]", "values": [{"measurement": "Con-A-induced thymocyte and lymphocyte proliferation", "setting": "[1]", "result": "increases"}, {"measurement": "Lung MPO in animals challenged with NSS aerosol", "setting": "[2]; 1 ug/kg, p<0.05 vs PBS NSS control", "result": "significantly reduced"}, {"measurement": "Change in lung EPO from NSS to OVA vs PBS treatment", "setting": "[2]; 10 ug/kg, ANOVA contrast", "result": "greater"}, {"measurement": "Lung EPO in animals challenged with NSS aerosol", "setting": "[2]; 10 ug/kg, p<0.05 vs PBS NSS control", "result": "significantly reduced"}, {"measurement": "Change in lung MPO from NSS to OVA", "setting": "[2]; ANOVA contrast vs PBS treatment", "result": "did not differ"}, {"measurement": "Total cellularity of the BAL", "setting": "[3]; SCV-07 0.1 μg/kg intra-abdominally", "result": "1.96±0.99", "unit": "million"}, {"measurement": "Total cellularity of the BAL", "setting": "[3]; SCV-07 1 μg/kg", "result": "2.21±1.16", "unit": "million"}, {"measurement": "Eosinophils, % of BAL cells", "setting": "[3]; 0.1 μg/kg", "result": "57.4 ± 21.3", "unit": "%"}, {"measurement": "Lymphocytes, % of BAL cells", "setting": "[3]; 0.1 μg/kg", "result": "0.4 ± 0.5", "unit": "%"}, {"measurement": "Monocytes/Macrophages, % of BAL cells", "setting": "[3]; 0.1 μg/kg", "result": "41.2 ± 20.7", "unit": "%"}, {"measurement": "Neutrophils, % of BAL cells", "setting": "[3]; 0.1 μg/kg", "result": "0.9 ± 0.8", "unit": "%"}, {"measurement": "Eosinophils, % of BAL cells", "setting": "[3]; 1 μg/kg", "result": "56.7 ± 9.5", "unit": "%"}, {"measurement": "Lymphocytes, % of BAL cells", "setting": "[3]; 1 μg/kg", "result": "0.6 ± 0.7", "unit": "%"}, {"measurement": "Monocytes/Macrophages, % of BAL cells", "setting": "[3]; 1 μg/kg", "result": "40.6 ± 9.4", "unit": "%"}, {"measurement": "Neutrophils, % of BAL cells", "setting": "[3]; 1 μg/kg", "result": "2.1 ± 0.9", "unit": "%"}, {"measurement": "Eosinophils in BAL, thousand", "setting": "[3]; 0.1 μg/kg", "result": "456 ± 144", "unit": "thousand"}, {"measurement": "Lymphocytes in BAL, thousand", "setting": "[3]; 0.1 μg/kg", "result": "22 ± 11", "unit": "thousand"}, {"measurement": "Monocytes/Macrophages in BAL, thousand", "setting": "[3]; 0.1 μg/kg", "result": "629 ± 134", "unit": "thousand"}, {"measurement": "Neutrophils in BAL, thousand", "setting": "[3]; 0.1 μg/kg", "result": "17 ± 14", "unit": "thousand"}, {"measurement": "Total number of cells in the lavages", "setting": "[3]; 0.1 μg/kg, p<0.05 vs control", "result": "1.12±0.15", "unit": "million"}, {"measurement": "Eosinophils in BAL, thousand", "setting": "[3]; 1 μg/kg", "result": "690 ± 247", "unit": "thousand"}, {"measurement": "Lymphocytes in BAL, thousand", "setting": "[3]; 1 μg/kg", "result": "26 ± 9", "unit": "thousand"}, {"measurement": "Monocytes/Macrophages in BAL, thousand", "setting": "[3]; 1 μg/kg", "result": "586 ± 144", "unit": "thousand"}, {"measurement": "Neutrophils in BAL, thousand", "setting": "[3]; 1 μg/kg", "result": "18 ± 10", "unit": "thousand"}, {"measurement": "Total number of cells in the lavages", "setting": "[3]; 1 μg/kg", "result": "1.32±0.23", "unit": "million"}]}]}
